Source: patent publication US11390617B2, “Methods of treating non-Hodgkin lymphoma using 2-(2,6-dioxopiperidin-3-yl)-4-((2-fluoro-4-((3-morpholinoazetidin-1-yl)methyl)benzyl)amino)isoindoline-1,3-dione” (Celgene Corporation, priority 2019, dated 2022)

Assays:
Test in all cases: Viability/apoptosis flow cytometry assay, DLBCL cell lines with acquired resistance to doxorubicin and parental lines
Type in all cases: cell-based
[1] = tested on: WSU-DLCL2 DoxoR
Description: (§1) The following exemplary anti-proliferative assay uses exemplary DLBCL cell lines with acquired resistance to doxorubicin (Table 7). The in vitro growth inhibitory activity of Compound described herein was evaluated using a 384-well flow cytometry assay. The activity of Compound 1 was also evaluated in cell lines with acquired resistance to doxorubicin (one of the curative agents in the DLBCL standard of care regimen R-CHOP [rituximab, cyclophosphamide, doxorubicin, vincristine, and prednisone]) (Table 7).
(§2) The cell lines in Table 7 were plated in 96-well flat bottom plates and assessed with increasing concentrations of compound ranging from 0.0015 to 10 μM or dimethyl sulfoxide (DMSO) control. The final concentration of DMSO was 0.1% (v/v). Following the addition of Compound 1 or DMSO and incubation for 120 hours, cell number and cell death were analyzed by flow cytometry (Attune®, Thermo Fisher) using Annexin V and the vital dye, 7-AAD. Phosphatidylserine translocates from the inner layer to the outer layer of the cell membrane early in apoptosis and Annexin V binds to the exposed phosphatidylserine found on the surface of an apoptotic cell. The dye 7-AAD is excluded by intact live cells and only stains cells that have died as a result of apoptosis or necrosis.
(§3) Flow cytometry data analysis was then performed using the Flow Jo_v10 software to determine the number of viable cells (Annexin V and 7-AAD double negative staining cells) and percentage of apoptotic cells (Annexin V positive cells) for each condition. The live cell count for every concentration was normalized to the DMSO control (considered as 100%) to calculate the percentage of viable cells remaining after treatment and graphed using GraphPad Prism 7.03. The IC50 (50% inhibitory concentration) and Emax (maximum efficacy eliminating tumor cells achieved) values were then calculated by performing nonlinear regression curve fitting using log(inhibitor) vs. normalized response—variable slope analysis on GraphPad Prism 7.03. Area under the curve (AUC) was calculated by performing area under curve analysis on GraphPad Prism 7.03. Similarly, for apoptosis analysis, the percentage of apoptosis combining both “early” (Annexin V positive and 7-AAD negative) and “late” apoptosis (Annexin V and 7-AAD positive) cell gates relative to DMSO was graphed using GraphPad Prism 7.03. The AUC, EC50 (concentration of Compound 1 that produces half-maximal apoptosis response) and Ymax (maximal percentage of apoptosis achieved) values from apoptosis curves were calculated by performing area under curve analysis and nonlinear regression curve fitting using log(agonist) vs. normalized response—Variable slope analysis on GraphPad Prism 7.03.
(§4) In Table 8, dose-response proliferation curves for the cell lines with acquired resistance to doxorubicin and non-linear curve-fit regression were used to determine IC50, AUC, and Emax for % viable cells (Emax for viability varies between 100 at low doses and 0 at high doses, which corresponds to inhibition of all viable cells), and dose-response apoptosis curves were used to determine the EC50, AUC, and Ymax for % apoptosis (Ymax for apoptosis varies from 0 at low doses and 100 at higher doses which corresponds to death of all cells). Tumor cells were exposed to serial dilutions (0.00015 to 10 μM) of Compound 1 or dimethyl sulfoxide (DMSO) control for 5 days. Viability and apoptosis for all cell lines was determined by Annexin V/7-aminoactinomycin D (7-AAD) flow cytometry.

[2] = tested on: SUDHL4 DoxoR
Description: as §1, §2, §3, §4

[3] = tested on: WSU-DLCL2 Parental
Description: as §1, §2, §3, §4

[4] = tested on: SUDHL4 Parental
Description: as §1, §2, §3, §4

[5] = tested on: Oci-Ly10 Parental; conditions: 120 hours
Description: as §1, §2, §3, §4

[6] = tested on: U2932 Parental; conditions: 120 hours
Description: as §1, §2, §3, §4

[7] = tested on: Oci-Ly10 DoxoR; conditions: 120 hours
Description: as §1, §2, §3, §4

[8] = tested on: U2932 DoxoR; conditions: 120 hours
Description: as §1, §2, §3, §4

[9] = Homo sapiens, WSUDLCL2, 120 hours
[10] = Homo sapiens, WSUDLCL2, 120 hours, read-out: IC50 (% Viable Cells)
[11] = Homo sapiens, SU-DHL-4, 120 hours
[12] = Homo sapiens, read-out: IC50 (% Viable Cells)

With `O=C1CC[C@H](N2C(=O)c3cccc(NCc4ccc(CN5CC(N6CCOCC6)C5)cc4F)c3C2=O)C(=O)N1` [Compound 1, (S)-2-(2,6-dioxopiperidin-3-yl)-4-((2-fluoro-4-((3-morpholinoazetidin-1-yl)methyl)benzyl)amino)isoindoline-1,3-dione] the “AUC (% Viable Cells)” value ([1]; 120 hours) was 195.9, the “AUC (Apoptosis)” value ([1]; 120 hours) was 74.4 and the “Emax (% Viable Cells)” value ([1]; 120 hours) was 8.4%. The “Ymax (Apoptosis)” value ([1]; 120 hours) was 57%, the EC50 [1, 9] was 400 nM and the IC50 [1, 10] was 70 nM. For the same compound, the “AUC (% Viable Cells)” value ([2]; 120 hours) was 182.4, the “AUC (Apoptosis)” value ([2]; 120 hours) was 84 and the “Emax (% Viable Cells)” value ([2]; 120 hours) was 7.5%. The “Ymax (Apoptosis)” value ([2]; 120 hours) was 63.5%, the EC50 [2, 11] was 400 nM and the IC50 ([2]; Homo sapiens, SU-DHL-4, 120 hours, read-out: IC50 (% Viable Cells)) was 72 nM. The “AUC (% Viable Cells)” value ([3]; 120 hours) was 166.7, the “AUC (Apoptosis)” value ([3]; 120 hours) was 51 and the “Emax (% Viable Cells)” value ([3]; 120 hours) was 28%. For the same compound, the “Ymax (Apoptosis)” value ([3]; 120 hours) was 29.5%, the EC50 [3, 9] was 320 nM and the IC50 [3, 10] was 10 nM. The “AUC (% Viable Cells)” value ([4]; 120 hours) was 335, the “AUC (Apoptosis)” value ([4]; 120 hours) was 6 and the “Emax (% Viable Cells)” value ([4]; 120 hours) was 75%. For the same compound, the “Ymax (Apoptosis)” value ([4]; 120 hours) was 3.7%, the EC50 [4, 11] was 200 nM and the “AUC (% Viable Cells)” value [5] was 285.5. For the same compound, the “AUC (Apoptosis)” value [5] was 13, the “Emax (% Viable Cells)” value [5] was 52% and the “Ymax (Apoptosis)” value [5] was 10.12%. The EC50 ([5]; Homo sapiens) was 810 nM, the IC50 [5, 12] was 200 nM and the “AUC (% Viable Cells)” value [6] was 193. For the same compound, the “AUC (Apoptosis)” value [6] was 45.5, the “Emax (% Viable Cells)” value [6] was 28.4% and the “Ymax (Apoptosis)” value [6] was 30%. The EC50 ([6]; Homo sapiens) was 440 nM, the IC50 [6, 12] was 30 nM and the “AUC (% Viable Cells)” value [7] was 211.8. The “AUC (Apoptosis)” value [7] was 27, the “Emax (% Viable Cells)” value [7] was 25% and the “Ymax (Apoptosis)” value [7] was 19.48%. For the same compound, the EC50 ([7]; Homo sapiens) was 640 nM, the IC50 [7, 12] was 90 nM and the “AUC (% Viable Cells)” value [8] was 256. For the same compound, the “AUC (Apoptosis)” value [8] was 15.7, the “Emax (% Viable Cells)” value [8] was 27.7% and the “Ymax (Apoptosis)” value [8] was 16%. For the same compound, the EC50 ([8]; Homo sapiens) was 1120 nM and the IC50 [8, 12] was 250 nM.
